Reference: patent publication US11110105B2, “Compounds, composition and uses thereof for treating cancer” (INSTITUT GUSTAVE ROUSSY, priority 2017, dated 2021)

Assays:
[1] = biological target: spliceosome (SF3B1) (Homo sapiens, UniProt O75533+Q7RTV0); details: in vivo; cited from earlier work
[2] = Water solubility; format: physicochemical

Chain of spliceosome (SF3B1) (Q7RTV0 whole entry, canonical isoform): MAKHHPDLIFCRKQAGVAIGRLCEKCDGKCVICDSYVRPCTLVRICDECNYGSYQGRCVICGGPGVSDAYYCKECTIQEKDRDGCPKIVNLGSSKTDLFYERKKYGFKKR
Chain of spliceosome (SF3B1) (Q15393 whole entry, further chain, canonical isoform): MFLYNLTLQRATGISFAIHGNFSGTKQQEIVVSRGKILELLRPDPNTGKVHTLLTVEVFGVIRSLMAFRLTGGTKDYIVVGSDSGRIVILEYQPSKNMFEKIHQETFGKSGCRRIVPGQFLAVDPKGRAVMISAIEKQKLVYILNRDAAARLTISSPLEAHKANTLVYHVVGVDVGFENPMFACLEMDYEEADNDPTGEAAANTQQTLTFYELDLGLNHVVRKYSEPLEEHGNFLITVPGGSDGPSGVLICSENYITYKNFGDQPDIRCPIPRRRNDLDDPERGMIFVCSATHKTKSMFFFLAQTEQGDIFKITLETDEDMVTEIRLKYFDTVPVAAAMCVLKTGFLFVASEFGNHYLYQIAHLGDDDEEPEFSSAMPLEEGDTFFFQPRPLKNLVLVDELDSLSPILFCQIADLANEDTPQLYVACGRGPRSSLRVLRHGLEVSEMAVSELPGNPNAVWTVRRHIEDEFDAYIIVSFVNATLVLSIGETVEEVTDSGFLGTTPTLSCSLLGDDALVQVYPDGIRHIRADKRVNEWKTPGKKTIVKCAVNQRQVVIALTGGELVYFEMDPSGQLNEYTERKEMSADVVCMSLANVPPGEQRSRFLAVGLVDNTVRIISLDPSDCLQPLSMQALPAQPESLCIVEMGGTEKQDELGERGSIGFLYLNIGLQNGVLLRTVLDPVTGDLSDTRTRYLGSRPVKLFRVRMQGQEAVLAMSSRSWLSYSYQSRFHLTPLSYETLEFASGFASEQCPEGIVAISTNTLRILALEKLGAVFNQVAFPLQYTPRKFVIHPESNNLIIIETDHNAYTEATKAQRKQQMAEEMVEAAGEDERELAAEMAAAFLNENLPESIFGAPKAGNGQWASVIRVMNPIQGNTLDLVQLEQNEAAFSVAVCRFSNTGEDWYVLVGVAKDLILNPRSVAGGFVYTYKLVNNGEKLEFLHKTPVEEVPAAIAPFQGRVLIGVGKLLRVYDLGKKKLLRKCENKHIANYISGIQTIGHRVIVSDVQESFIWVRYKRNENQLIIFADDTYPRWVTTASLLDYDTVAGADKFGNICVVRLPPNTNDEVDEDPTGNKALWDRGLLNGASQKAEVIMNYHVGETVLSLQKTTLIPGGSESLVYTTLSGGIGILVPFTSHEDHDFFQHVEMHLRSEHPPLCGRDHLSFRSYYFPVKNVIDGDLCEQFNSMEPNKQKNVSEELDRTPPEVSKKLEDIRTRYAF
Chain of spliceosome (SF3B1) (Q9BWJ5 whole entry, further chain, canonical isoform): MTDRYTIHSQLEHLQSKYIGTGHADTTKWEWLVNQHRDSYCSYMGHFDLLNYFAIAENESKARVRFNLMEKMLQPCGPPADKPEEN
Chain of spliceosome (SF3B1) (O75533 whole entry, canonical isoform): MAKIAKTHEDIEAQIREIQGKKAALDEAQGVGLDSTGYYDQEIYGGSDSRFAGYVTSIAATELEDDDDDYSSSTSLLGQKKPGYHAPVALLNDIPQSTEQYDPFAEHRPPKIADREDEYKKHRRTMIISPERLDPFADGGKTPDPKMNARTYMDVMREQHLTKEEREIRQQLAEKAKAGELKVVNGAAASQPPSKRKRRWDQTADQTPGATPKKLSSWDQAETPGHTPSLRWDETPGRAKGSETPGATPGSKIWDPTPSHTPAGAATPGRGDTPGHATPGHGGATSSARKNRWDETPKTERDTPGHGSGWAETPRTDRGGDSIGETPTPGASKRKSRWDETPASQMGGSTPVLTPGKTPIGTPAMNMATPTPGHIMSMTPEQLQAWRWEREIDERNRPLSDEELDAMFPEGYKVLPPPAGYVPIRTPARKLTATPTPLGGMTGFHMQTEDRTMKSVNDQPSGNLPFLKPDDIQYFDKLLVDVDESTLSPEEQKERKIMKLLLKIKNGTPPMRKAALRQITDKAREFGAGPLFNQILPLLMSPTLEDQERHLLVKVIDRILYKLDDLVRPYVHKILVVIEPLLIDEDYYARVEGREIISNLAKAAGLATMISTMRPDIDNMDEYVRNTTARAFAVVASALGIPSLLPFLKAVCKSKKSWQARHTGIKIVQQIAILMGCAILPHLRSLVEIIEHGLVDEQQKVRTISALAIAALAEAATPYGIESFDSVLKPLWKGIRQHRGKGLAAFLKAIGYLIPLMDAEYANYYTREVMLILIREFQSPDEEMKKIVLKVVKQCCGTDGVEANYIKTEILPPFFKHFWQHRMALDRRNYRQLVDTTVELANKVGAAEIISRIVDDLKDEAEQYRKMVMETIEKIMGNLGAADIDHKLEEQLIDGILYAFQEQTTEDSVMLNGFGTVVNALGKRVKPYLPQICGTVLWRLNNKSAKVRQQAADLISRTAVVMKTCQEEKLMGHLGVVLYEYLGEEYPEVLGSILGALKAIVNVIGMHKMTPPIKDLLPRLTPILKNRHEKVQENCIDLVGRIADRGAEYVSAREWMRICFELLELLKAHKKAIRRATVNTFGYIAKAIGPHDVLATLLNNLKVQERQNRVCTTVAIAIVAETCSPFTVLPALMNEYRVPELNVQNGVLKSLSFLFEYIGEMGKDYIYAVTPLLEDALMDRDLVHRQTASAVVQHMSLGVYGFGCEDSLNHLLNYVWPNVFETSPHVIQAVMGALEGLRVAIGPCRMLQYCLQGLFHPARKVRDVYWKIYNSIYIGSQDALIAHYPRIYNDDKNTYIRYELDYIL

SMILES | outcome of testing in human [1] | water solubility [2]
CC[C@H](O)[C@@H](C)[C@H]1O[C@@H]1C[C@@](C)(O)/C=C/C=C(\C)[C@H]1OC(=O)C[C@H](O)CC[C@@](C)(O)[C@@H](OC(=O)N2CCN(C3CCCCCC3)CC2)/C=C/[C@@H]1C [E7107] | stopped because of problems of toxicity | –
COc1ccc(-c2cc(=O)c3c([O-])cc(OP(=O)(O)O)c(-c4cc(-c5cc(=O)c6c([O-])cc(OP(=O)(O)O)cc6o5)ccc4OC)c3o2)cc1.[Na+].[Na+] [Compound 2] | – | considerably higher than that of the parent compound isoginkgetin
